Source: patent US7863276B2, “Salts of modulators of PPAR and methods of treating metabolic disorders” (KALYPSYS, Inc, priority 2005, dated 2011)

Experiments:
Format in all cases: cell-based, murine and human
PPARγ = target: T1, PPARγ (UniProt P37231); assay: PPARγ GAL4 chimera transactivation assay in CV-1 cells; conditions: transient transfection, luciferase reporter, 20-24 hours, read-out: PPAR gamma
T1 sequence (P37231 1-505): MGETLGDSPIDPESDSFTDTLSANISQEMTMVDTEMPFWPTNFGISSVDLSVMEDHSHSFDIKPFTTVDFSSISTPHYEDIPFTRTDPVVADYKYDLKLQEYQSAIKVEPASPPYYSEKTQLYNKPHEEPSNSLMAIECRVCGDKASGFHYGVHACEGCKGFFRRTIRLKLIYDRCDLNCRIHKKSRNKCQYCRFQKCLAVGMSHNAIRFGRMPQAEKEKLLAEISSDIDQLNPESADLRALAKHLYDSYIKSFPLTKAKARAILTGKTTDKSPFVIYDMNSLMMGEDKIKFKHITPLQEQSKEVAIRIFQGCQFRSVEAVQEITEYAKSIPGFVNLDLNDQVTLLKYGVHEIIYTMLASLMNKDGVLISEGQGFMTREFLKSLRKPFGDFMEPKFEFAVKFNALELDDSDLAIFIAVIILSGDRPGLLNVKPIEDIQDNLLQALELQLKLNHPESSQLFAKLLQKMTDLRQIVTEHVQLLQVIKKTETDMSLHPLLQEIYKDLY
Text: (§1) Compounds were screened for functional potency in transient transfection assays in CV-1 cells for their ability to activate the PPAR subtypes (transactivation assay). A previously established chimeric receptor system was utilized to allow comparison of the relative transcriptional activity of the receptor subtypes on the same synthetic response element and to prevent endogenous receptor activation from complicating the interpretation of results. See, for example, Lehmann, J. M.; Moore, L. B.; Smith-Oliver, T. A; Wilkinson, W. O.; Willson, T. M.; Kliewer, S. A., An antidiabetic thiazolidinedione is a high affinity ligand for peroxisome proliferator-activated receptor […], J. Biol. Chem., 1995, 270, 12953-6. The ligand binding domains for murine and human PPARα, PPARγ, and PPARδ are each fused to the yeast transcription factor GAL4 DNA binding domain. CV-1 cells were transiently transfected with expression vectors for the respective PPAR chimera along with a reporter construct containing four or five copies of the GAL4 DNA binding site driving expression of luciferase. […] Luciferase activity was then assayed with Britelite (Perkin Elmer) following the manufacturer's protocol and measured with either the Perkin Elmer Viewlux or Molecular Devices Acquest (see, for example, Kliewer, S. A., et. al. Cell 1995, 83, 813-819). […]

PPARδ = target: T2, PPARδ (UniProt Q03181); assay: PPARδ GAL4 chimera transactivation assay in CV-1 cells; conditions: transient transfection, luciferase reporter, 20-24 hours, read-out: PPAR delta
T2 sequence (Q03181 1-441): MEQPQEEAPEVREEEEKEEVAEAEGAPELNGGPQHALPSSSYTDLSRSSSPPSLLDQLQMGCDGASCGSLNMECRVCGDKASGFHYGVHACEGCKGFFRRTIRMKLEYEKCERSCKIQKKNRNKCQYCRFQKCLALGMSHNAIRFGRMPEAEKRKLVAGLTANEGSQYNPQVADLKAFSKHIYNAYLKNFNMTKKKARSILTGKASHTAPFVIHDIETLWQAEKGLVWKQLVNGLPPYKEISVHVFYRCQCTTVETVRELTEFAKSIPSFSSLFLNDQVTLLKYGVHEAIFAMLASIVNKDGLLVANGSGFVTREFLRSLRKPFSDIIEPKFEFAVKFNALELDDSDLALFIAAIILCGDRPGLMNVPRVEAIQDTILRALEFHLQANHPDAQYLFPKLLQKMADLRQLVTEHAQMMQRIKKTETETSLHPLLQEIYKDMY
Text: as §1

PPARα = target: T3, PPARα (UniProt Q07869); assay: PPARα GAL4 chimera transactivation assay in CV-1 cells; conditions: transient transfection, luciferase reporter, 20-24 hours, read-out: PPAR alpha
T3 sequence (Q07869 1-468): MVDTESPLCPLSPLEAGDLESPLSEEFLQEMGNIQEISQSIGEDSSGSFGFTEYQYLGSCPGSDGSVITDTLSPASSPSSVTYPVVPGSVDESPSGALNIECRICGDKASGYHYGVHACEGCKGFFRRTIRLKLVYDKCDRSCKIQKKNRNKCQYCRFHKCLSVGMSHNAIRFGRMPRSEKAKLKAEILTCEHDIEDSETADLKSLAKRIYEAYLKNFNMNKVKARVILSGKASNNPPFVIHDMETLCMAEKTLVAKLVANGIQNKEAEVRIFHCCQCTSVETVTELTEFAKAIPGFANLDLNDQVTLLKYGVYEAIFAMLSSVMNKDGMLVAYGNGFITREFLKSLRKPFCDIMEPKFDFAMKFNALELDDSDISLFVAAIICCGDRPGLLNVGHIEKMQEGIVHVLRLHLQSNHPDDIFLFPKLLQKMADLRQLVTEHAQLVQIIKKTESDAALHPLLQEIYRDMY
Text: as §1

Compound | EC50 (PPARγ) | EC50 (PPARδ) | EC50 (PPARα)
C[C@@H]1CN(c2ccc(OC(F)(F)F)cc2)C[C@H](C)N1S(=O)(=O)c1cccc2c1C[C@@H](C(=O)O)C2 [Compound 1, (S)-4-[cis-2,6-Dimethyl-4-(4-trifluoromethoxy-phenyl)-piperazine-1-sulfonyl]-indan-2-carboxylic acid] | > 100 µM | < 5 µM | > 100 µM
C[C@@H]1CN(Cc2ccc(OC(F)(F)F)cc2)C[C@H](C)N1S(=O)(=O)c1cccc2c1C[C@@H](C(=O)O)C2 [Compound 2, (S)-4-[cis-2,6-Dimethyl-4-(4-trifluoromethoxy-benzyl)-piperazine-1-sulfonyl]-indan-2-carboxylic acid] | 5 to 100 µM | < 5 µM | > 100 µM
